Data reported in ChEMBL document CHEMBL1201862, “PubChem BioAssay data set” (2004).
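Values below derive from 48-hour exposures of cells grown in 96-well plates, with endpoints linearly interpolated between the two concentrations bracketing the appropriate inhibition level. GI50 = concentration required for 50% inhibition of growth.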 Calls of active or inactive are those of the source. No stated cut-off is given here; in the data, active = GI50 up to about 1.1 µM and inactive = higher.

What was measured:
Test in all cases: DTP human tumour cell line panel, 48 h
NCI-H522 = system: NCI-H522
SK-MEL-28 = system: SK-MEL-28
ACHN = system: ACHN
MCF7 = system: MCF7
SF-268 = system: SF-268
MOLT-4 = system: MOLT-4
SK-OV-3 = system: SK-OV-3
MDA-MB-435 = system: MDA-MB-435
OVCAR-5 = system: OVCAR-5
BT-549 = system: BT-549
SK-MEL-2 = system: SK-MEL-2
SNB-75 = system: SNB-75
CCRF-CEM = system: CCRF-CEM
K562 = system: K562
TK-10 = system: TK-10
786-0 = system: 786-0
HOP-62 = system: HOP-62
IGROV-1 = system: IGROV-1

Measured: GI50

CC1SC2(CCCCC2)N(NC(=O)CSc2nc3ccc(Cl)cc3c(=O)n2-c2ccccc2)C1=O (stereo not given)
inactive: NCI-H522 18.8 µM | SK-MEL-28 32.6 µM | ACHN 29.6 µM | MCF7 15.3 µM | SF-268 25.8 µM | MOLT-4 7.53 µM | SK-OV-3 33.3 µM | MDA-MB-435 23.4 µM | OVCAR-5 25.7 µM | BT-549 20.2 µM | SK-MEL-2 17.3 µM | SNB-75 20.7 µM | CCRF-CEM 34.4 µM | K562 19.5 µM | TK-10 47.1 µM | 786-0 18.2 µM | HOP-62 18 µM | IGROV-1 12 µM

CN(C)c1ccc(C(c2ccc(Cl)cc2)c2ccc(N(C)C)cc2)cc1
inactive: NCI-H522 28.5 µM | SK-MEL-28 > 100 µM | ACHN > 100 µM | MCF7 49.1 µM | SF-268 > 100 µM | MOLT-4 > 100 µM | SK-OV-3 > 100 µM | MDA-MB-435 > 100 µM | OVCAR-5 > 100 µM | BT-549 54.8 µM | SK-MEL-2 > 100 µM | SNB-75 > 100 µM | CCRF-CEM 72.9 µM | K562 83 µM | TK-10 > 100 µM | 786-0 > 100 µM | HOP-62 > 100 µM | IGROV-1 > 100 µM

CCN(CC)C(=O)N[C@@H](CC(C)C)C(=O)NC
inactive: NCI-H522 > 100 µM | SK-MEL-28 > 100 µM | ACHN > 100 µM | MCF7 49.4 µM | SF-268 > 100 µM | MOLT-4 > 100 µM | SK-OV-3 > 100 µM | MDA-MB-435 > 100 µM | OVCAR-5 > 100 µM | BT-549 > 100 µM | SK-MEL-2 > 100 µM | SNB-75 > 100 µM | CCRF-CEM > 100 µM | K562 > 100 µM | 786-0 > 100 µM | HOP-62 > 100 µM | IGROV-1 > 100 µM

N#Cc1cc(N(CCCl)CCCl)c([N+](=O)[O-])cc1[N+](=O)[O-]
inactive: NCI-H522 87.9 µM | SK-MEL-28 > 100 µM | ACHN 18.1 µM | MCF7 86.3 µM | SF-268 > 100 µM | MOLT-4 24 µM | SK-OV-3 > 100 µM | MDA-MB-435 > 100 µM | OVCAR-5 > 100 µM | BT-549 > 100 µM | SK-MEL-2 > 100 µM | CCRF-CEM 19.2 µM | K562 > 100 µM | TK-10 > 100 µM | 786-0 81.1 µM | HOP-62 > 100 µM | IGROV-1 > 100 µM
